Laboratory results reported in US20240058456A1, “MOLECULES WITH SOLUBILITY TAG AND RELATED METHODS” (Merck Patent GmbH, priority 2020, published 2024).

Assay: Solubility and aggregation during conjugation
Type: physicochemical
Conditions: conjugation media
Method: To this end, 1 eq antibody in a buffer with 150 mM NaCl, 25 mM Tris (pH 8.0) was mixed with a solution of the respective payload (10× or 20× surplus to the concentration of the antibody, depending on the number of linkage sites) and 6 U/ml of transglutaminase. The mixture was incubated for 16 h in a thermomixer at 37° C. and 450 rpm.
For linkage by maleimide chemistry, a 5 mg/mL solution of the respective antibody component in PBS (pH 7.4) was prepared (˜33 μM antibody). The antibody was reduced with TCEP ((tris(2-carboxyethyl)phosphine); ratio of antibody component to TCEP 1:2 to 1:6, depending on the desired DAR; TCEP was used as 2 mM stock, pH 7.0) or in some cases with DTT (dithiothreitol; 20 mM). After incubation for 0.5-2 hours (depending on the number of cysteines to be activated) in a 37° C. water bath, the reaction was allowed to cool down to room temperature.
The solution was desalted to conjugation buffer (10 mM sodium phosphate, pH 6.0, 2 mM EDTA, N2 degassed) on a Sephadex G25 column and adjusted to an antibody concentration of 0.2 mg/mL in conjugation buffer.
Conjugation was initiated by adding the reduced antibody to a solution of the appropriate maleimide-activated linker-payload construct at a suitable ratio (e.g. 1:4 to 1:8 ratio antibody to linker-payload construct for DAR 4; e.g. 1:20 ratio antibody to linker-payload construct for DAR 8). […]

Cc1cccc2c(OC(=O)N(CCC(=O)NCCOS(=O)(=O)O)CCN(C)C(=O)OCc3ccc(NC(=O)[C@H](CCCNC(N)=O)NC(=O)[C@@H](NC(=O)CNC(=O)CNC(=O)CN)C(C)C)cc3)cc3c(c12)[C@H](CCl)CN3C(=O)c1cn2cc(NC(=O)c3cc4ccccc4o3)ccc2n1 [Compound 5]
solubility of the linker-payload construct under coupling conditions: insufficient
